ChEMBL document CHEMBL3352455, “Small molecule disruptors of the glucokinase-glucokinase regulatory protein interaction: 4. Exploration of a novel binding pocket” (J Med Chem, 2014)

What was measured:
[1] = Intrinsic clearance in human liver microsomes at 1 uM after 30 mins in presence of NADPH; assay type: ADME; details: read-out: CLH
[2] = target: T1, Hexokinase-4 (Homo sapiens, UniProt P35557); experiment: Inhibition of fluorescein-labeled human GK interaction with biotin-labeled human GKRP compound incubated for 20 mins prior to addition of fluorescein-labeled GK measured after 2 to 4 hrs by AlphaScreen assay
T1 sequence (P35557 whole entry): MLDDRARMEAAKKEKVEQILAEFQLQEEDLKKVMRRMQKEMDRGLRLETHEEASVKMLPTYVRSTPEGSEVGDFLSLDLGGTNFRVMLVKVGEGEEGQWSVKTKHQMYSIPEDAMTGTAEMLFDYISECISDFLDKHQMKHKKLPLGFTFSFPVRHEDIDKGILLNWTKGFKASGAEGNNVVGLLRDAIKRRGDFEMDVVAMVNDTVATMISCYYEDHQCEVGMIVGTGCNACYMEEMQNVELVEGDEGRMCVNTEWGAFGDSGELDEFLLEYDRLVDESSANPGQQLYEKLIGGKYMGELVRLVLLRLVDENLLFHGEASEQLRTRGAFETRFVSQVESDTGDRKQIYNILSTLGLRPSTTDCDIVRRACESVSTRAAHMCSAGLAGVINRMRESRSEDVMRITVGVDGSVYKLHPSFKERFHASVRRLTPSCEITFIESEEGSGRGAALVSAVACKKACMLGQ

[3] = Intrinsic clearance in rat liver microsomes at 1 uM after 30 mins in presence of NADPH; assay type: ADME; details: read-out: CLH

SMILES	microsomal CLint at 1 µM [1] [µL/min/mg]	IC50 [2] [nM]	microsomal CLint at 1 µM [3] [µL/min/mg]
Nc1ccc(S(=O)(=O)N2CCN(c3ncc(C(O)(C(F)(F)F)C(F)(F)F)cc3-c3cncc(F)c3)CC2)cn1	24	11	19
Nc1ccc(S(=O)(=O)N2CCN(c3ncc(C(O)(C(F)(F)F)C(F)(F)F)cc3-c3ccccc3)CC2)cn1	< 14	7	49
CC(C)(O)C#Cc1cc(C(O)(C(F)(F)F)C(F)(F)F)cnc1N1CCN(S(=O)(=O)c2ccc(N)nc2)CC1	< 14	49	16
Cc1csc(-c2cc(C(O)(C(F)(F)F)C(F)(F)F)cnc2N2CCN(S(=O)(=O)c3ccc(N)nc3)CC2)c1	29	5	399
Nc1ccc(S(=O)(=O)N2CCN(c3ncc(C(O)(C(F)(F)F)C(F)(F)F)cc3C#CCO)CC2)cn1	< 14	14	65
Nc1ccc(S(=O)(=O)N2CCN(c3ncc(C(O)(C(F)(F)F)C(F)(F)F)cc3-c3ccc4scnc4c3)CC2)cn1	39	35	147
CS(=O)(=O)c1ccc(-c2cc(C(O)(C(F)(F)F)C(F)(F)F)cnc2N2CCN(S(=O)(=O)c3ccc(N)nc3)CC2)cc1	32	42	103
Nc1ccc(S(=O)(=O)N2CCN(c3ncc(C(O)(C(F)(F)F)C(F)(F)F)cc3Cl)CC2)cn1	< 14	201	26
Nc1ccc(S(=O)(=O)N2CCN(c3ncc(C(O)(C(F)(F)F)C(F)(F)F)cc3C#CC3CC3)CC2)cn1	< 14	33	67
CCn1cc(-c2cc(C(O)(C(F)(F)F)C(F)(F)F)cnc2N2CCN(S(=O)(=O)c3ccc(N)nc3)CC2)cn1	20	5	194
Nc1ccc(S(=O)(=O)N2CCN(c3ncc(C(O)(C(F)(F)F)C(F)(F)F)cc3-c3cccc4[nH]ncc34)CC2)cn1	42	1950	93
Cn1cc(-c2cc(C(O)(C(F)(F)F)C(F)(F)F)cnc2N2CCN(S(=O)(=O)c3ccc(N)nc3)CC2)c(C(F)(F)F)n1	50	30000	121
COc1cncc(-c2cc(C(O)(C(F)(F)F)C(F)(F)F)cnc2N2CCN(S(=O)(=O)c3ccc(N)nc3)CC2)c1	44	17	58
Nc1ccc(S(=O)(=O)N2CCN(c3ncc(C(O)(C(F)(F)F)C(F)(F)F)cc3-c3ccoc3)CC2)cn1	< 14	19	57
Nc1ccc(S(=O)(=O)N2CCN(c3ncc(C(O)(C(F)(F)F)C(F)(F)F)cc3-c3ccncc3)CC2)cn1	15	21	31
Cc1nc2cc(-c3cc(C(O)(C(F)(F)F)C(F)(F)F)cnc3N3CCN(S(=O)(=O)c4ccc(N)nc4)CC3)ccc2o1	< 14	15	99
Cc1ccc(-c2cc(C(O)(C(F)(F)F)C(F)(F)F)cnc2N2CCN(S(=O)(=O)c3ccc(N)nc3)CC2)cn1	43	40	182
Cc1cncc(-c2cc(C(O)(C(F)(F)F)C(F)(F)F)cnc2N2CCN(S(=O)(=O)c3ccc(N)nc3)CC2)c1	37	29	259
Nc1ccc(S(=O)(=O)N2CCN(c3ncc(C(O)(C(F)(F)F)C(F)(F)F)cc3-c3ccc4sccc4c3)CC2)cn1	48	47	487
COCC#Cc1cc(C(O)(C(F)(F)F)C(F)(F)F)cnc1N1CCN(S(=O)(=O)c2ccc(N)nc2)CC1	15	5	399
Nc1ccc(S(=O)(=O)N2CCN(c3ncc(C(O)(C(F)(F)F)C(F)(F)F)cc3-c3cc4ccccc4s3)CC2)cn1	< 14	48	315
Nc1ccc(S(=O)(=O)N2CCN(c3ncc(C(O)(C(F)(F)F)C(F)(F)F)cc3-c3cc4ccccc4[nH]3)CC2)cn1	< 14	27	146

SMILES	microsomal CLint at 1 µM [1] [µL/min/mg]	IC50 [2] [nM]	microsomal CLint at 1 µM [3] [µL/min/mg]
CS(=O)(=O)Nc1cccc(-c2cc(C(O)(C(F)(F)F)C(F)(F)F)cnc2N2CCN(S(=O)(=O)c3ccc(N)nc3)CC2)c1	40	309	81
COc1ccc(-c2cc(C(O)(C(F)(F)F)C(F)(F)F)cnc2N2CCN(S(=O)(=O)c3ccc(N)nc3)CC2)cn1	25	16	265
Nc1ccc(S(=O)(=O)N2CCN(c3ncc(C(O)(C(F)(F)F)C(F)(F)F)cc3Br)CC2)cn1	< 14	112	32
Nc1ccc(S(=O)(=O)N2CCN(c3ncc(C(O)(C(F)(F)F)C(F)(F)F)cc3-c3cnccc3F)CC2)cn1	17	24	22
Cc1c(-c2cc(C(O)(C(F)(F)F)C(F)(F)F)cnc2N2CCN(S(=O)(=O)c3ccc(N)nc3)CC2)cnn1C	28	40	88
CN1C(=O)Cc2cc(-c3cc(C(O)(C(F)(F)F)C(F)(F)F)cnc3N3CCN(S(=O)(=O)c4ccc(N)nc4)CC3)ccc21	15	20	221
Nc1ccc(S(=O)(=O)N2CCN(c3ncc(C(O)(C(F)(F)F)C(F)(F)F)cc3-c3ccc4c(c3)CC(=O)N4)CC2)cn1	< 14	33	119
Nc1ccc(S(=O)(=O)N2CCN(c3ncc(C(O)(C(F)(F)F)C(F)(F)F)cc3-c3ccc4[nH]ncc4c3)CC2)cn1	27	60	88
Nc1ccc(S(=O)(=O)N2CCN(c3ncc(C(O)(C(F)(F)F)C(F)(F)F)cc3-c3ccc4ocnc4c3)CC2)cn1	< 14	20	120
Nc1ccc(S(=O)(=O)N2CCN(c3ccc(C(O)(C(F)(F)F)C(F)(F)F)cn3)CC2)cn1	< 14	176	< 14
Nc1ccc(S(=O)(=O)N2CCN(c3ncc(C(O)(C(F)(F)F)C(F)(F)F)cc3-c3ccc(F)cc3)CC2)cn1	< 14	11	40
CC(C)(C)n1cc(-c2cc(C(O)(C(F)(F)F)C(F)(F)F)cnc2N2CCN(S(=O)(=O)c3ccc(N)nc3)CC2)cn1	86	87	459
NC(=O)c1cccc(-c2cc(C(O)(C(F)(F)F)C(F)(F)F)cnc2N2CCN(S(=O)(=O)c3ccc(N)nc3)CC2)c1	17	50	63
CC(C)n1cc(-c2cc(C(O)(C(F)(F)F)C(F)(F)F)cnc2N2CCN(S(=O)(=O)c3ccc(N)nc3)CC2)cn1	38	23	198
Nc1ccc(S(=O)(=O)N2CCN(c3ncc(C(O)(C(F)(F)F)C(F)(F)F)cc3-c3cccc(F)c3)CC2)cn1	25	8	52
Nc1ccc(S(=O)(=O)N2CCN(c3ncc(C(O)(C(F)(F)F)C(F)(F)F)cc3-c3ccccc3F)CC2)cn1	< 14	7	47
COc1cc(C(O)(C(F)(F)F)C(F)(F)F)cnc1N1CCN(S(=O)(=O)c2ccc(N)nc2)CC1	< 14	1110	< 14
Nc1ccc(S(=O)(=O)N2CCN(c3ncc(C(O)(C(F)(F)F)C(F)(F)F)cc3C#CCCO)CC2)cn1	< 14	17	68
Nc1ccc(S(=O)(=O)N2CCN(c3ncc(C(O)(C(F)(F)F)C(F)(F)F)cc3-c3cc[nH]n3)CC2)cn1	< 14	201	20
Nc1ccc(S(=O)(=O)N2CCN(c3ncc(C(O)(C(F)(F)F)C(F)(F)F)cc3-c3ccccc3O)CC2)cn1	22	6	125
Nc1ccc(S(=O)(=O)N2CCN(c3ncc(C(O)(C(F)(F)F)C(F)(F)F)cc3C3CC3)CC2)cn1	38	601	27
